Experimental findings from publication PMC2560999, “A-Type GABA Receptor as a Central Target of TRPM8 Agonist Menthol” (PLoS ONE, 2008) are described below.

Molecules are shown by their SMILES.

By EC50 is commonly meant the concentration at which the effect is half-maximal. A high value points to weaker potency.

The test deals with T1, GABAA receptor (GABAAR), native, cultured rat hippocampal neurons.
T1 construct: gene Gabra1; native receptors of unresolved subunit composition in primary cultured hippocampal neurons (12-16 DIV for firing recordings)
As to the kind of experiment: whole-cell patch clamp, peak current. In kind it is cell-based. The following applies: direct activation without GABA; holding potential −50 mV; pH 7.3.

Consider `CC(C)[C@@H]1CC[C@@H](C)C[C@H]1O` [menthol], for which the EC50 worked out at 490 µM.
